Results: patent publication US9586961B2, “Homopiperazine derivatives as protein tyrosine kinase inhibitors and pharmaceutical use thereof” (LEO PHARMA A/S, priority 2010, dated 2017)
One block for each compound: values may come before it.

Tests used:
Type in all cases: biochemical
[1] = biological target: T1, JAK3 (Homo sapiens, UniProt P52333); experiment: JAK3 kinase assay (HTRF, inhibition of phosphorylation of a synthetic peptide); settings: catalytic domain, His-tag; 2 μM ATP (Km); read-out: JAK3 kinase inhibitory activity (EC50)
T1 construct: All four purified enzymes contain only the catalytic domain; His (N); purchased Carna Biosciences, Inc; host or cells: baculovirus expression system
T1 sequence (P52333 822-1111 limits assumed): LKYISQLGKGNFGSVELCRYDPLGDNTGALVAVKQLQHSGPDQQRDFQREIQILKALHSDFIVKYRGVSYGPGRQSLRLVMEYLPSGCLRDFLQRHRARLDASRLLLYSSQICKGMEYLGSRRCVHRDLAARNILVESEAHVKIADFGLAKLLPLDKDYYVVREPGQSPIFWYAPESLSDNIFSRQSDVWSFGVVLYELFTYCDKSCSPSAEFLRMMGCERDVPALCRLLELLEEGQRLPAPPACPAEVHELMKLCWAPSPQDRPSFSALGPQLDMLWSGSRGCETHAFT
Description: (§1) JAK1, JAK2, JAK3 and TYK2 Kinase Assays:
(§2) Human baculovirus-expressed JAK1, 2, 3 and TYK2 were purchased from Carna Biosciences, Inc. All four purified enzymes contain only the catalytic domain. JAK1 (aa 850-1154) and TYK2 (aa 871-1187) are expressed with an N-terminally fused GST-tag, and JAK2 and JAK3 with an N-terminally fused His-tag. Inhibition of phosphorylation of a synthetic peptide was measured in an HTRF-based assay using the TK substrate-Biotin from the CisbioHTRFKinEASE TK kit. First, 2 μl of TK solution (TK substrate-biotin in kinase buffer [1× enzymatic buffer from HTRFKinEASE TK kit, 1 mM DTT]) is added to a plate containing 1 μl prediluted compound (final assay concentration DMSO: 0.75%). Then, 5 μl kinase-ATP mix (prepared in kinase buffer) is added to the wells and the plates are incubated at RT for 20-30 min. For all four kinases a concentration of ATP that corresponded to the Km for ATP was used. The final concentrations of buffers, substrate, kinase and ATP were: JAK1: 50 mMHepes buffer pH 7.0, 0.01% BSA, 10 mM MgCl2, 1 mM DTT, 7 μM ATP, 50 nMSEB, 1 μM TK Substrate-Biotin and 5 ng JAK1; JAK2: 50 mM Hepes buffer pH 7.0, 0.01% BSA, 5 mM MgCl2, 1 mM DTT, 4 μM ATP, 1 μM TK Substrate-Biotin and 0.1 ng JAK2; JAK3: 50 mMHepes buffer pH 7.0, 0.01% BSA, 5 mM MgCl2, 1 mM DTT, 2 μM ATP, 1 μM TK Substrate-Biotin and 0.3 ng JAK3; TYK2: 50 mMHepes buffer pH 7.0, 0.01% BSA, 5 mM MgCl2, 1 mM DTT, 13 μM ATP, 50 nMSEB, 1 μM TK Substrate-Biotin and 0.8 ng TYK2. Thereafter, the kinase reaction is stopped by adding 4 μl detection mix (final concentrations: 50 mM Hepes buffer pH 7.0, 0.01% BSA, 0.8 M KF, 20 mM EDTA, 42 nM Streptavidin-XL665 and 1:400 STKAbCryptate) and the plates are incubated overnight in the dark. The HTRF signal is read using an Envision plate reader.

[2] = biological target: T2, JAK2 (Homo sapiens, UniProt O60674); experiment: JAK2 kinase assay (HTRF, inhibition of phosphorylation of a synthetic peptide); settings: catalytic domain, His-tag; 4 μM ATP (Km); read-out: JAK2 kinase inhibitory activity (EC50)
T2 construct: All four purified enzymes contain only the catalytic domain; His (N); purchased Carna Biosciences, Inc; host or cells: baculovirus expression system
T2 sequence (O60674 849-1124 limits assumed): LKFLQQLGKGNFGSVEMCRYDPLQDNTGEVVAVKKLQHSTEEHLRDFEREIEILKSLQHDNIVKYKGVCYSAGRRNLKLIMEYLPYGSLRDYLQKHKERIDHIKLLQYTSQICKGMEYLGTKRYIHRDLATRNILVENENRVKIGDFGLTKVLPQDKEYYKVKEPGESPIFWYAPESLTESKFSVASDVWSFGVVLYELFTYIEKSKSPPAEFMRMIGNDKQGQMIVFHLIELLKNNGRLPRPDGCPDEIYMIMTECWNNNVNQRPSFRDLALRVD
Description: as §1, §2

[3] = biological target: T3, JAK1 (Homo sapiens, UniProt P23458); experiment: JAK1 kinase assay (HTRF, inhibition of phosphorylation of a synthetic peptide); settings: catalytic domain aa 850-1154, GST-tag; 7 μM ATP (Km); read-out: JAK1 kinase inhibitory activity (EC50)
T3 construct: JAK1 (aa 850-1154) and TYK2 (aa 871-1187) are expressed with an N-terminally fused GST-tag; GST (N); purchased Carna Biosciences, Inc; host or cells: baculovirus expression system
T3 sequence (P23458 850-1154): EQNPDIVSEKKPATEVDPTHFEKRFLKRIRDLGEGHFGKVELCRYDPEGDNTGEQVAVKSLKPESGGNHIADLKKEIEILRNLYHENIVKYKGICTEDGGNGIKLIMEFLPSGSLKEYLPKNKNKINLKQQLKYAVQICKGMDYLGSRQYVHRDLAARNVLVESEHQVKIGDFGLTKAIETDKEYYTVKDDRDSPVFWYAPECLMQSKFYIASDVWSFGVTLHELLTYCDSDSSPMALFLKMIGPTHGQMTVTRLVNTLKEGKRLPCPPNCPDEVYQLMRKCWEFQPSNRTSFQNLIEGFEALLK
Description: as §1, §2

SMILES: O=C(c1cccnc1)N1CCCN(c2ncnc3[nH]ccc23)CC12CC2 [Example 128, 3-pyridyl-[5-(7H-pyrrolo[2,3-d]pyrimidin-4-yl)-5,9-diazaspiro[2.6]nonan-9-yl]methanone]
EC50 [1]: > 1000 nM
EC50 [2]: 100 to 1000 nM
EC50 [3]: 100 to 1000 nM

SMILES: O=C(c1ccncc1)N1CCN(c2ncnc3[nH]ccc23)CC2(CC2)C1 [Example 129, 4-pyridyl-[5-(7H-pyrrolo[2,3-d]pyrimidin-4-yl)-5,8-diazaspiro[2.6]nonan-8-yl]methanone]
EC50 [1]: > 1000 nM
EC50 [2]: 100 to 1000 nM
EC50 [3]: 100 to 1000 nM

SMILES: O=C(c1ccncc1)N1CCCN(c2ncnc3[nH]ccc23)CC12CC2 [Example 130, 4-pyridyl-[5-(7H-pyrrolo[2,3-d]pyrimidin-4-yl)-5,9-diazaspiro[2.6]nonan-9-yl]methanone]
EC50 [1]: > 1000 nM
EC50 [2]: 100 to 1000 nM
EC50 [3]: 100 to 1000 nM

SMILES: O=C(c1ccc(O)nc1)N1CCN(c2ncnc3[nH]ccc23)CC2(CC2)C1 [Example 131, (6-hydroxy-3-pyridyl)-[5-(7H-pyrrolo[2,3-d]pyrimidin-4-yl)-5,8-diazaspiro[2.6]nonan-8-yl]methanone]
EC50 [1]: 100 to 1000 nM
EC50 [2]: 100 to 1000 nM
EC50 [3]: 100 to 1000 nM

SMILES: O=C(c1ccc(O)nc1)N1CCCN(c2ncnc3[nH]ccc23)CC12CC2 [Example 132, (6-hydroxy-3-pyridyl)-[5-(7H-pyrrolo[2,3-d]pyrimidin-4-yl)-5,9-diazaspiro[2.6]nonan-9-yl]methanone]
EC50 [1]: 100 to 1000 nM
EC50 [2]: 100 to 1000 nM
EC50 [3]: 100 to 1000 nM

SMILES: O=C(c1c[nH]cn1)N1CCN(c2ncnc3[nH]ccc23)CC2(CC2)C1 [Example 133, 1H-imidazol-4-yl-[5-(7H-pyrrolo[2,3-d]pyrimidin-4-yl)-5,8-diazaspiro[2.6]nonan-8-yl]methanone]
EC50 [1]: 100 to 1000 nM
EC50 [2]: 100 to 1000 nM
EC50 [3]: 100 to 1000 nM

SMILES: O=C(c1c[nH]cn1)N1CCCN(c2ncnc3[nH]ccc23)CC12CC2 [Example 134, 1H-imidazol-4-yl-[5-(7H-pyrrolo[2,3-d]pyrimidin-4-yl)-5,9-diazaspiro[2.6]nonan-9-yl]methanone]
EC50 [1]: 100 to 1000 nM
EC50 [2]: 100 to 1000 nM
EC50 [3]: 100 to 1000 nM

SMILES: Cc1ncccc1C(=O)N1CCN(c2ncnc3[nH]ccc23)CC2(CC2)C1 [Example 135, (2-methyl-3-pyridyl)-[5-(7H-pyrrolo[2,3-d]pyrimidin-4-yl)-5,8-diazaspiro[2.6]nonan-8-yl]methanone]
EC50 [1]: > 1000 nM
EC50 [2]: > 1000 nM
EC50 [3]: > 1000 nM

SMILES: Cc1ncccc1C(=O)N1CCCN(c2ncnc3[nH]ccc23)CC12CC2 [Example 136, (2-methyl-3-pyridyl)-[5-(7H-pyrrolo[2,3-d]pyrimidin-4-yl)-5,9-diazaspiro[2.6]nonan-9-yl]methanone]
EC50 [1]: > 1000 nM
EC50 [2]: 100 to 1000 nM
EC50 [3]: > 1000 nM

SMILES: Cc1cnccc1C(=O)N1CCN(c2ncnc3[nH]ccc23)CC2(CC2)C1 [Example 137, (3-methyl-4-pyridyl)-[5-(7H-pyrrolo[2,3-d]pyrimidin-4-yl)-5,8-diazaspiro[2.6]nonan-8-yl]methanone]
EC50 [1]: > 1000 nM
EC50 [2]: 100 to 1000 nM
EC50 [3]: > 1000 nM

Continued, values first:

EC50 [1]: > 1000 nM
EC50 [2]: 100 to 1000 nM
EC50 [3]: > 1000 nM
SMILES: Cc1cnccc1C(=O)N1CCCN(c2ncnc3[nH]ccc23)CC12CC2 [Example 138, (3-methyl-4-pyridyl)-[5-(7H-pyrrolo[2,3-d]pyrimidin-4-yl)-5,9-diazaspiro[2.6]nonan-9-yl]methanone]

EC50 [1]: > 1000 nM
EC50 [2]: 100 to 1000 nM
EC50 [3]: 100 to 1000 nM
SMILES: O=C(c1ccnnc1)N1CCN(c2ncnc3[nH]ccc23)CC2(CC2)C1 [Example 139, pyridazin-4-yl-[5-(7H-pyrrolo[2,3-d]pyrimidin-4-yl)-5,8-diazaspiro[2.6]nonan-8-yl]methanone]

EC50 [1]: > 1000 nM
EC50 [2]: > 1000 nM
EC50 [3]: > 1000 nM
SMILES: Cc1nc(C)c(CC(=O)N2CCCN(c3ncnc4[nH]ccc34)CC23CC3)s1 [Example 140, 2-(2,4-dimethylthiazol-5-yl)-1-[5-(7H-pyrrolo[2,3-d]pyrimidin-4-yl)-5,9-diazaspiro[2.6]nonan-9-yl]ethanone]

EC50 [1]: > 1000 nM
EC50 [2]: > 1000 nM
EC50 [3]: > 1000 nM
SMILES: Cc1cc(C(=O)N2CCN(c3ncnc4[nH]ccc34)CC3(CC3)C2)n(C)n1 [Example 143, (2,5-dimethylpyrazol-3-yl)-[5-(7H-pyrrolo[2,3-d]pyrimidin-4-yl)-5,8-diazaspiro[2.6]nonan-8-yl]methanone]

EC50 [1]: > 1000 nM
EC50 [2]: 100 to 1000 nM
EC50 [3]: 100 to 1000 nM
SMILES: Cn1cncc1C(=O)N1CCN(c2ncnc3[nH]ccc23)CC2(CC2)C1 [Example 144, (3-methylimidazol-4-yl)-[5-(7H-pyrrolo[2,3-d]pyrimidin-4-yl)-5,8-diazaspiro[2.6]nonan-8-yl]methanone]

EC50 [1]: > 1000 nM
EC50 [2]: 100 to 1000 nM
EC50 [3]: 100 to 1000 nM
SMILES: Cn1cncc1C(=O)N1CCCN(c2ncnc3[nH]ccc23)CC12CC2 [Example 145, (3-methylimidazol-4-yl)-[5-(7H-pyrrolo[2,3-d]pyrimidin-4-yl)-5,9-diazaspiro[2.6]nonan-9-yl]methanone]

EC50 [1]: > 1000 nM
EC50 [2]: 100 to 1000 nM
EC50 [3]: 100 to 1000 nM
SMILES: Cc1nnsc1C(=O)N1CCN(c2ncnc3[nH]ccc23)CC2(CC2)C1 [Example 146, (4-methylthiadiazol-5-yl)-[5-(7H-pyrrolo[2,3-d]pyrimidin-4-yl)-5,8-diazaspiro[2.6]nonan-8-yl]methanone]

EC50 [1]: > 1000 nM
EC50 [2]: 100 to 1000 nM
EC50 [3]: 100 to 1000 nM
SMILES: Cc1nnsc1C(=O)N1CCCN(c2ncnc3[nH]ccc23)CC12CC2 [Example 147, (4-methylthiadiazol-5-yl)-[5-(7H-pyrrolo[2,3-d]pyrimidin-4-yl)-5,9-diazaspiro[2.6]nonan-9-yl]methanone]

EC50 [1]: > 1000 nM
EC50 [2]: 100 to 1000 nM
EC50 [3]: 100 to 1000 nM
SMILES: Cc1cc(C(=O)N2CCN(c3ncnc4[nH]ccc34)CC3(CC3)C2)[nH]n1 [Example 148, (5-methyl-1H-pyrazol-3-yl)-[5-(7H-pyrrolo[2,3-d]pyrimidin-4-yl)-5,8-diazaspiro[2.6]nonan-8-yl]methanone]

EC50 [1]: > 1000 nM
EC50 [2]: 100 to 1000 nM
EC50 [3]: 100 to 1000 nM
SMILES: Cc1cc(C(=O)N2CCCN(c3ncnc4[nH]ccc34)CC23CC3)n[nH]1 [Example 149, (5-methyl-1H-pyrazol-3-yl)-[5-(7H-pyrrolo[2,3-d]pyrimidin-4-yl)-5,9-diazaspiro[2.6]nonan-9-yl]methanone]

EC50 [1]: > 1000 nM
EC50 [2]: > 1000 nM
EC50 [3]: 100 to 1000 nM
SMILES: Cc1ccncc1C(=O)N1CCN(c2ncnc3[nH]ccc23)CC2(CC2)C1 [Example 150, (4-methyl-3-pyridyl)-[5-(7H-pyrrolo[2,3-d]pyrimidin-4-yl)-5,8-diazaspiro[2.6]nonan-8-yl]methanone]

EC50 [1]: > 1000 nM
EC50 [2]: 100 to 1000 nM
EC50 [3]: 100 to 1000 nM
SMILES: Cc1ccncc1C(=O)N1CCCN(c2ncnc3[nH]ccc23)CC12CC2 [Example 151, (4-methyl-3-pyridyl)-[5-(7H-pyrrolo[2,3-d]pyrimidin-4-yl)-5,9-diazaspiro[2.6]nonan-9-yl]methanone]

EC50 [1]: 100 to 1000 nM
EC50 [2]: 100 to 1000 nM
EC50 [3]: 100 to 1000 nM
SMILES: O=C(c1ccon1)N1CCN(c2ncnc3[nH]ccc23)CC2(CC2)C1 [Example 152, isoxazol-3-yl-[5-(7H-pyrrolo[2,3-d]pyrimidin-4-yl)-5,8-diazaspiro[2.6]nonan-8-yl]methanone]
